Holding throughout (format): cell-based, human
Data set [1] deals with AR FL (full length AR T877A LBD mutant). Put plainly: AR protein knock-down by Western blot after siRNA transfection in LNCaP cells: AR FL. The note with it: 5 nM siRNA, 72 h post transfection, compared to controls. As to the method:
(§1) In some instances, a set of AR siRNAs were identified that were predicted to be specific in human and non-human primates (NHP) and cross-reactive with NHPs but not rodent AR mRNA. To identify AR siRNAs that regulate both full length AR and clinically relevant AR splice variants, the search for AR siRNAs was focused primarily, but not exclusively, on exons 1, 2 and 3 of the AR gene, which are common to most AR isoforms. The resulting set of 50 AR siRNAs (Tables 1-3) was assessed in two prostate cancer lines that express high levels of either clinically relevant AR splice variants (22RV1, ATCC) or a full length AR T877A LBD mutant (LNCaP, ATCC). The response of LNCaP tumors in xenograft models to AR antagonists is known to correlate well with clinical responses.
(§2) To monitor their ability to downregulate various AR isoforms, each siRNA was formulated at a single final concentration of 5 nM with a commercially-available transfection reagent (Lipofectamine RNAiMAX, Life Technologies) according to the manufacturer's “forward transfection” instructions. At 50 h (22RV1) and 72 h (LNCaP) post transfection, cells were harvested, and lysed in RIPA buffer (Pierce) supplemented with HALT protease inhibitors (Pierce) using standard procedures. The protein concentration was determined using a BCA protein concentration kit (Pierce). To monitor AR levels in these lysates, proteins (30 ug/lane) were separated by PAGE on BOLT 4-12% Bis-Tris PA gels (Life Technologies), transferred to nitrocellulose using an iBlot dry blot system (Thermo Fisher), and probed with specific antibodies against a region of the N-terminal domain of human AR that is common in known clinically relevant splice variants (N20, Santa Cruz Biotech). A second antibody against α-Tubulin was used as control (P16, Santa Cruz Biotech). Levels of these proteins in the respective cell lysates were quantified on an Odyssey imaging system (LICOR) using appropriate secondary antibodies linked to IRDyes (800CW, 680RD).
(In general: Immunoblotting shows a protein as a band on a membrane.)

A further data set has as its system AR-SV(3). Put plainly: AR protein knock-down by Western blot after siRNA transfection in 22RV1 cells: AR-SV(3). The note with it: 5 nM siRNA, 50 h post transfection, compared to controls. As to the method:
as §1, §2

The subject of a further data set is AR FL(1). Description: AR protein knock-down by Western blot after siRNA transfection in 22RV1 cells: AR FL(1). The settings on record: 5 nM siRNA, 50 h post transfection, compared to controls. As to the method:
as §1, §2

A further data set relates to AR-SV(2). Put plainly: AR protein knock-down by Western blot after siRNA transfection in 22RV1 cells: AR-SV(2). The settings on record: 5 nM siRNA, 50 h post transfection, compared to controls. As to the method:
as §1, §2

Data on 15 substances can be found in patent publication US20220033434A1, “ANDROGEN RECEPTOR NUCLEIC ACIDS AND USES THEREOF” (Avidity Biosciences, Inc., priority 2016, published 2022).

In the oligonucleotide strings, read from the 5' end, every base follows the letter of its sugar. An asterisk marks phosphorothioate; unmarked linkages are phosphodiester. Other units and linkages are bracketed, terminal groups are in braces. A string of capitals states the bases alone. d = 2'-deoxy (DNA); m = 2'-O-methyl; f = 2'-fluoro

For the substance “XD-01814: AR siRNA with chemical modification, Id # 1784; sense X05323 (SEQ ID NO: 153), antisense X05324 (SEQ ID NO: 154) (sense mCmAfAmUfUmAfCmUfUmAfGmGfGmGfGmCfAmCfUdT*dT; antisense fAfGmUfGmCfCmCfCmCfUmAfAmGfUmAfAmUfUmGdT*dT)”, the “% KD AR Protein LNCaP AR FL” value in data set [1] is listed as 94%. Further, the “% KD AR Protein 22RV1 AR-SV(3)” value with AR-SV(3) is −30%. Also, in the data set with AR FL(1), the “% KD AR Protein 22RV1 AR FL(1)” value is −7%. Further, the “% KD AR Protein 22RV1 AR-SV(2)” value in the data set with AR-SV(2) amounted to 20%.
On the same counts, the results for “XD-01815: AR siRNA with chemical modification, Id # 1968; sense X05325 (SEQ ID NO: 155), antisense X05326 (SEQ ID NO: 156) (sense mGmCfCmCfCmAfUmUfGmGfCmCfGmAfAmUfGmCfAdT*dT; antisense fUfGmCfAmUfUmCfGmGfCmCfAmAfUmGfGmGfGmCdT*dT)” are 91%, −15%, −10% and 5%.
On the same counts, the results for “XD-01818: AR siRNA with chemical modification, Id # 2045; sense X05331 (SEQ ID NO: 161), antisense X05332 (SEQ ID NO: 162) (sense mCmCfCmUfUmUfCmAfAmGfGmGfAmGfGmUfUmAfCdT*dT; antisense fGfUmAfAmCfCmUfCmCfCmUfUmGfAmAfAmGfGmGdT*dT)” are 93%, 25%, −6% and −48%.
As to “XD-01819: AR siRNA with chemical modification, Id # 2185; sense X05333 (SEQ ID NO: 163), antisense X05334 (SEQ ID NO: 164) (sense mCmUfGmCfGmUfAmCfCmAfGmAfGmUfCmGfCmGfAdT*dT; antisense fUfCmGfCmGfAmCfUmCfUmGfGmUfAmCfGmCfAmGdT*dT)”, the “% KD AR Protein LNCaP AR FL” value in data set [1] came to 92%. In addition, the “% KD AR Protein 22RV1 AR-SV(3)” value with AR-SV(3) stood at 45%. For the same substance, the “% KD AR Protein 22RV1 AR FL(1)” value in the data set on AR FL(1) was 15%. In the data set on AR-SV(2), the “% KD AR Protein 22RV1 AR-SV(2)” value came to 47%.
With “XD-01822: AR siRNA with chemical modification, Id # 2263; sense X05339 (SEQ ID NO: 169), antisense X05340 (SEQ ID NO: 170) (sense mCmCfCmAfCmGfCmUfCmGfCmAfUmCfAmAfGmCfUdT*dT; antisense fAfGmCfUmUfGmAfUmGfCmGfAmGfCmGfUmGfGmGdT*dT)”, the “% KD AR Protein LNCaP AR FL” value in data set [1] came to 88%. Besides, the “% KD AR Protein 22RV1 AR-SV(3)” value with AR-SV(3) came out at 41%. Besides, in the data set with AR FL(1), the “% KD AR Protein 22RV1 AR FL(1)” value came out at 34%. Moreover, the “% KD AR Protein 22RV1 AR-SV(2)” value with AR-SV(2) came out at 33%.
On the same counts, the results for “XD-01823: AR siRNA with chemical modification, Id # 2739; sense X05341 (SEQ ID NO: 171), antisense X05342 (SEQ ID NO: 172) (sense mAmCfUmGfCmCfAmGfGmGfAmCfCmAfUmGfUmUfUdT*dT; antisense fAfAmAfCmAfUmGfGmUfCmCfCmUfGmGfCmAfGmUdT*dT)” are 79%, −19%, −5% and 0%.
Consider “XD-01824: AR siRNA with chemical modification, Id # 2741; sense X05343 (SEQ ID NO: 173), antisense X05344 (SEQ ID NO: 174) (sense mUmGfCmCfAmGfGmGfAmCfCmAfUmGfUmUfUmUfGdT*dT; antisense fCfAmAfAmAfCmAfUmGfGmUfCmCfCmUfGmGfCmAdT*dT)”, for which the “% KD AR Protein LNCaP AR FL” value in data set [1] was determined as 45%. The “% KD AR Protein 22RV1 AR-SV(3)” value in the data set on AR-SV(3) is listed as −44%. The “% KD AR Protein 22RV1 AR FL(1)” value in the data set with AR FL(1) came to 3%. In addition, the “% KD AR Protein 22RV1 AR-SV(2)” value in the data set with AR-SV(2) is recorded as −32%.
For the substance “XD-01830: AR siRNA with chemical modification, Id # 2824; sense X05355 (SEQ ID NO: 185), antisense X05356 (SEQ ID NO: 186) (sense mGmUfCmAfCmUfAmUfGmGfAmGfCmUfCmUfCmAfCdT*dT; antisense fGfUmGfAmGfAmGfCmUfCmCfAmUfAmGfUmGfAmCdT*dT)”, the “% KD AR Protein LNCaP AR FL” value in data set [1] turned out to be 90%. For the same substance, the “% KD AR Protein 22RV1 AR-SV(3)” value in the data set on AR-SV(3) amounted to 76%. Besides, the “% KD AR Protein 22RV1 AR FL(1)” value in the data set with AR FL(1) is reported as 75%. The “% KD AR Protein 22RV1 AR-SV(2)” value in the data set on AR-SV(2) is reported as 72%.
Regarding “XD-01831: AR siRNA with chemical modification, Id # 2847; sense X05357 (SEQ ID NO: 187), antisense X05358 (SEQ ID NO: 188) (sense mGmGfAmAfGmCfUmGfCmAfAmGfGmUfCmUfUmCfUdT*dT; antisense fAfGmAfAmGfAmCfCmUfUmGfCmAfGmCfUmUfCmCdT*dT)”, in data set [1], the “% KD AR Protein LNCaP AR FL” value turned out to be 87%. In the data set with AR-SV(3), the “% KD AR Protein 22RV1 AR-SV(3)” value is 59%. Moreover, the “% KD AR Protein 22RV1 AR FL(1)” value in the data set with AR FL(1) is reported as 57%. Besides, in the data set with AR-SV(2), the “% KD AR Protein 22RV1 AR-SV(2)” value came out at 54%.
As for “XD-01832: AR siRNA with chemical modification, Id # 2920; sense X05359 (SEQ ID NO: 189), antisense X05360 (SEQ ID NO: 190) (sense mGmCfAmCfUmAfUmUfGmAfUmAfAmAfUmUfCmCfGdT*dT; antisense fCfGmGfAmAfUmUfUmAfUmCfAmAfUmAfGmUfGmCdT*dT)”, the “% KD AR Protein LNCaP AR FL” value in data set [1] amounted to 92%. Further, the “% KD AR Protein 22RV1 AR-SV(3)” value with AR-SV(3) amounted to 73%. In addition, the “% KD AR Protein 22RV1 AR FL(1)” value in the data set on AR FL(1) is on record as 93%. Besides, the “% KD AR Protein 22RV1 AR-SV(2)” value with AR-SV(2) was determined as 93%.
For “XD-01833: AR siRNA with chemical modification, Id # 2922; sense X05361 (SEQ ID NO: 191), antisense X05362 (SEQ ID NO: 192) (sense mAmCfUmAfUmUfGmAfUmAfAmAfUmUfCmCfGmAfAdT*dT; antisense fUfUmCfGmGfAmAfUmUfUmAfUmCfAmAfUmAfGmUdT*dT)”, the “% KD AR Protein LNCaP AR FL” value in data set [1] was 91%. Also, the “% KD AR Protein 22RV1 AR-SV(3)” value in the data set on AR-SV(3) came to 77%. Also, the “% KD AR Protein 22RV1 AR FL(1)” value with AR FL(1) amounted to 94%. For the same substance, the “% KD AR Protein 22RV1 AR-SV(2)” value with AR-SV(2) is 91%.
Turning to “XD-01834: AR siRNA with chemical modification, Id # 2923; sense X05363 (SEQ ID NO: 193), antisense X05364 (SEQ ID NO: 194) (sense mCmUfAmUfUmGfAmUfAmAfAmUfUmCfCmGfAmAfGdT*dT; antisense fCfUmUfCmGfGmAfAmUfUmUfAmUfCmAfAmUfAmGdT*dT)”, the “% KD AR Protein LNCaP AR FL” value in data set [1] stood at 91%. The “% KD AR Protein 22RV1 AR-SV(3)” value in the data set with AR-SV(3) came out at 79%. Also, the “% KD AR Protein 22RV1 AR FL(1)” value in the data set on AR FL(1) stood at 90%. In the data set on AR-SV(2), the “% KD AR Protein 22RV1 AR-SV(2)” value stood at 91%.
Turning to “XD-01835: AR siRNA with chemical modification, Id # 2924; sense X05365 (SEQ ID NO: 195), antisense X05366 (SEQ ID NO: 196) (sense mUmAfUmUfGmAfUmAfAmAfUmUfCmCfGmAfAmGfGdT*dT; antisense fCfCmUfUmCfGmGfAmAfUmUfUmAfUmCfAmAfUmAdT*dT)”, in data set [1], the “% KD AR Protein LNCaP AR FL” value is recorded as 92%. In addition, the “% KD AR Protein 22RV1 AR-SV(3)” value in the data set on AR-SV(3) was 83%. Further, the “% KD AR Protein 22RV1 AR FL(1)” value in the data set on AR FL(1) is on record as 89%. Moreover, in the data set with AR-SV(2), the “% KD AR Protein 22RV1 AR-SV(2)” value is listed as 85%.
On the same counts, the results for “XD-01836: AR siRNA with chemical modification, Id # 2925; sense X05367 (SEQ ID NO: 197), antisense X05368 (SEQ ID NO: 198) (sense mAmUfUmGfAmUfAmAfAmUfUmCfCmGfAmAfGmGfAdT*dT; antisense fUfCmCfUmUfCmGfGmAfAmUfUmUfAmUfCmAfAmUdT*dT)” are 91%, 73%, 87% and 83%.
As to “XD-01837: AR siRNA with chemical modification, Id # 2927; sense X05369 (SEQ ID NO: 199), antisense X05370 (SEQ ID NO: 200) (sense mUmGfAmUfAmAfAmUfUmCfCmGfAmAfGmGfAmAfAdT*dT; antisense fUfUmUfCmCfUmUfCmGfGmAfAmUfUmUfAmUfCmAdT*dT)”, in data set [1], the “% KD AR Protein LNCaP AR FL” value turned out to be 91%. For the same substance, the “% KD AR Protein 22RV1 AR-SV(3)” value with AR-SV(3) is on record as 86%. The “% KD AR Protein 22RV1 AR FL(1)” value in the data set on AR FL(1) amounted to 87%. In addition, the “% KD AR Protein 22RV1 AR-SV(2)” value in the data set on AR-SV(2) is listed as 94%.
